Assay results reported in the NIST ThermoML archive (doi:10.1016/j.jct.2012.03.034).

Assay: xn = mol fraction of the nth substance listed
Conditions: 101 kPa, Liquid; for speed of sound: Linear variable-path acoustic interferometer; for mass density: Vibrating tube method; for viscosity: dual vibrating plate viscometer, AandD Co. Ltd Model SV-10

CC[NH2+]CC.O=S(=O)([O-])O [diethylammonium hydrogen sulfate] + CN1CCCC1=O
Conditions	mass density [kg/m3]	speed of sound [m/s]	viscosity [mPa·s]
298.15 K, x1 = 0.016	1050.6	1559	2.45
298.15 K, x1 = 0.0347	1067.85	1555	3.33
298.15 K, x1 = 0.092	1113.77	1539	9.94
298.15 K, x1 = 0.1316	1140.71	1534	15.78
298.15 K, x1 = 0.1916	1176.12	1529	27.2
298.15 K, x1 = 0.2992	1222.46	1518	49.04
298.15 K, x1 = 0.3455	1237.11	1513	59.35
298.15 K, x1 = 0.4175	1253.31	1508	73.04
298.15 K, x1 = 0.5442	1269.42	1495	92.75
298.15 K, x1 = 0.6829	1275.63	1481	101.4
298.15 K, x1 = 0.8359	1277.72	1458	87.14
298.15 K, x1 = 0.9342	1282.39	1440	58.7
298.15 K, x1 = 0.9684	1281.99	1434	46.45
298.15 K, x1 = 1	1283.95	1432	34.1
303.15 K, x1 = 0.016	1037.47	1551	–
303.15 K, x1 = 0.0347	1054.26	1547	0.95
303.15 K, x1 = 0.092	1095.4	1536	7.28
303.15 K, x1 = 0.1316	1122.07	1529	12.27
303.15 K, x1 = 0.1916	1155.56	1523	21.6
303.15 K, x1 = 0.2992	1196	1515	37.85
303.15 K, x1 = 0.3455	1207.13	1510	45.88
303.15 K, x1 = 0.4175	1219.69	1505	56.62
303.15 K, x1 = 0.5442	1228.51	1491	72.49
303.15 K, x1 = 0.6829	1229.8	1474	79.75
303.15 K, x1 = 0.8359	1232.02	1446	69.13
303.15 K, x1 = 0.9342	1235.49	1423	48.37
303.15 K, x1 = 0.9684	1237.36	1415	35.95
303.15 K, x1 = 1	1239.74	1408	28.9
308.15 K, x1 = 0.016	1030.03	1533	–
308.15 K, x1 = 0.0347	1043.78	1530	0.67
308.15 K, x1 = 0.092	1080.92	1521	4.42
308.15 K, x1 = 0.1316	1103.13	1518	9.53
308.15 K, x1 = 0.1916	1133.63	1511	17.3
308.15 K, x1 = 0.2992	1169.38	1503	30.7
308.15 K, x1 = 0.3455	1179.79	1500	36.84
308.15 K, x1 = 0.4175	1190.23	1496	45.89
308.15 K, x1 = 0.5442	1198.01	1485	57.51
308.15 K, x1 = 0.6829	1198.27	1468	63.11
308.15 K, x1 = 0.8359	1198.28	1437	55.29
308.15 K, x1 = 0.9342	1200.49	1414	37.86
308.15 K, x1 = 0.9684	1202.65	1404	27.69
308.15 K, x1 = 1	1205.43	1392	24.6
313.15 K, x1 = 0.016	1020.1	1529	–
313.15 K, x1 = 0.0346	1031.41	1529	0.48
313.15 K, x1 = 0.092	1060.41	1521	2.06
313.15 K, x1 = 0.1316	1079.57	1516	5.97
313.15 K, x1 = 0.1916	1100.33	1511	13.15
313.15 K, x1 = 0.2992	1123.81	1502	24.74
313.15 K, x1 = 0.3455	1129.72	1498	30.42
313.15 K, x1 = 0.4175	1134.34	1491	36.87
313.15 K, x1 = 0.5442	1134.82	1474	46.82
313.15 K, x1 = 0.6829	1128.95	1450	52.39
313.15 K, x1 = 0.8359	1123.69	1411	46.21
313.15 K, x1 = 0.9342	1123.28	1382	30.9
313.15 K, x1 = 0.9684	1124.6	1370	23.03
313.15 K, x1 = 1	1126.81	1356	21.9

CC(=O)O.CCN(CC)CC [triethylammonium acetate] + CN1CCCC1=O
Conditions	mass density [kg/m3]	speed of sound [m/s]	viscosity [mPa·s]
298.15 K, x1 = 0.0138	1026.09	1564	1.61
298.15 K, x1 = 0.0302	1026.34	1559	1.76
298.15 K, x1 = 0.0813	1026.88	1556	2.79
298.15 K, x1 = 0.117	1026.93	1554	3.21
298.15 K, x1 = 0.1733	1026.39	1555	3.79
298.15 K, x1 = 0.2751	1023.97	1560	4.02
298.15 K, x1 = 0.3189	1022.57	1566	3.83
298.15 K, x1 = 0.3865	1019.96	1578	3.58
298.15 K, x1 = 0.5133	1015.18	1603	3.4
298.15 K, x1 = 0.6561	1010.89	1648	4.71
298.15 K, x1 = 0.8181	1009.29	1714	10.14
298.15 K, x1 = 0.926	1011.5	1776	17.25
298.15 K, x1 = 0.9642	1012.97	1799	20.16
298.15 K, x1 = 1	1015.86	1840	24.12
303.15 K, x1 = 0.0138	1024.21	1555	1.52
303.15 K, x1 = 0.0302	1024.48	1555	1.84
303.15 K, x1 = 0.0813	1024.64	1553	2.67
303.15 K, x1 = 0.117	1024.37	1554	3.1
303.15 K, x1 = 0.1733	1023.53	1555	3.42
303.15 K, x1 = 0.2751	1020.86	1561	3.62
303.15 K, x1 = 0.3189	1019.42	1566	3.55
303.15 K, x1 = 0.3865	1016.89	1579	3.18
303.15 K, x1 = 0.5133	1012.16	1602	2.7
303.15 K, x1 = 0.6561	1007.69	1645	3.42
303.15 K, x1 = 0.8181	1005.54	1713	8.21
303.15 K, x1 = 0.926	1006.58	1769	14.2
303.15 K, x1 = 0.9642	1007.74	1797	17
303.15 K, x1 = 1	1009.58	1824	19.6
308.15 K, x1 = 0.0138	1020.18	1530	1.5
308.15 K, x1 = 0.0302	1020.47	1533	1.81
308.15 K, x1 = 0.0813	1020.35	1536	2.61
308.15 K, x1 = 0.117	1019.88	1539	3.03
308.15 K, x1 = 0.1733	1018.8	1544	3.36
308.15 K, x1 = 0.2751	1015.91	1553	3.28
308.15 K, x1 = 0.3189	1014.49	1559	3.14
308.15 K, x1 = 0.3865	1011.99	1572	2.59
308.15 K, x1 = 0.5133	1007.46	1593	2.51
308.15 K, x1 = 0.6561	1003.25	1632	3.1
308.15 K, x1 = 0.8181	1000.89	1698	7.76
308.15 K, x1 = 0.926	1001.01	1753	13.1
308.15 K, x1 = 0.9642	1001.75	1776	14.98
308.15 K, x1 = 1	1002.61	1798	16.13
313.15 K, x1 = 0.0138	1015.8	1525	1.47
313.15 K, x1 = 0.0302	1016.2	1527	1.72
313.15 K, x1 = 0.0813	1016.66	1529	2.3
313.15 K, x1 = 0.117	1016.4	1530	2.78
313.15 K, x1 = 0.1733	1015.69	1535	3.04
313.15 K, x1 = 0.2751	1013.39	1543	2.98
313.15 K, x1 = 0.3189	1012.13	1548	2.83
313.15 K, x1 = 0.3865	1010.15	1561	2.38
313.15 K, x1 = 0.5133	1006.1	1582	2.34
313.15 K, x1 = 0.6561	1002.5	1616	3.01
313.15 K, x1 = 0.8181	1000.41	1669	7.08
313.15 K, x1 = 0.926	1000.32	1716	11.65
313.15 K, x1 = 0.9642	1000.61	1735	13.39
313.15 K, x1 = 1	1000.97	1752	14.81
